Experimental data as given in patent US4079135A, “Morpholine derivatives as antidepressants” (Imperial Chemical Industries Limited, priority 1973, dated 1978).
Where a name gives a salt, the structure may show the parent alone.

Tests used:
Oral LD50 in mice = settings: mouse, in vivo, dosed orally
Procedure: The compound of the invention 2-(4H-2,3-dihydro-1,4-benzoxazin-3-one-4-ylmethyl)morpholine hydrogen oxalate has an LD50 in mice of 800 mg./kg. when dosed orally.

[1] = system: reserpine-induced hypothermia in mice; test: RHL test: reversal of reserpine-induced hypothermia in mice; type: in vivo; settings: 4 hours, over a large number of tests, reserpine 2 mg./kg. s.c. 17 h before
Procedure: This effect is the one primarily used in the art for establishing the relative antidepressant activity in a series of chemically-related compounds. […] Pharmacol., 1962, 14, 509. The RHL test is carried out as follows:-
Mice are kept in a constant temperature room maintained at 21° ± 1° C. Each member of groups of 4 mice is given reserpine (2 mg. of base per kg. bodyweight, given subcutaneously as the acetate). Seventeen hours later the oesophageal temperature (TO) of each mouse is recorded by means of an orally-inserted probe coupled to an electric thermometer which is calibrated in degree Centigrade and which can be read to 0.1° C. Immediately after the temperature measurement the mice are dosed orally with the test compound, or with imipramine, each mouse in a group of 4 being given the same substance, and the oesophageal temperatures are again recorded after 4 hours (T4). The compound under test is dosed at serial dilutions, e.g. 100, 30, 3, 1, 0.3, 0.1 mg./kg. Imipramine is used as the control. […] At 1 mg./kg. it produces an average rise of 1.7° C. A test compound which at a certain dose level gives a rise in temperature equal to or greater than that given by 1 mg./kg. of imipramine, dosed to a different set of mice on the same day, is adjudged "active" at that dose.

Structure (SMILES)	LD50 (Oral LD50 in mice) [mg/kg]	average rise in the temperature of a reserpinised mouse ([1]; 1 mg./kg. oral) [°C]	average rise in the temperature of a reserpinised mouse ([1]; 3 mg./kg. oral) [°C]
O=C1COc2ccccc2N1CC1CNCCO1 (stereo not drawn) [2-(4H-2,3-dihydro-1,4-benzoxazin-3-one-4-ylmethyl)morpholine hydrogen oxalate]	800		
CN(C)CCCN1c2ccccc2CCc2ccccc21 [imipramine]		1.7	3
